Reference: patent US11691949B2, “Quinoline sulfonamide compounds and their use as antibacterial agents” (OTAGO INNOVATION LIMITED, priority 2017, dated 2023)
In brackets after ≈: the same amount, converted by molar mass. Counter-ions that a name gives are not always drawn. Like-named read-outs stand apart in the source and are kept apart here.

Key:
Format in all cases: cell-based
E. coli ATCC 10596 = test: MIC by broth microdilution, E. coli; conditions: Escherichia coli
Procedure, shortened: (§1)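 Overnight cultures diluted to ~5×10^5 cfu/mL final; S. aureus in TSB and CAMHB, E. coli in LB and CAMHB, zinc sulphate to 50 μM final as required; two-fold serial dilutions. MIC = lowest concentration with no growth by OD600 after 24 h, 37° C, 200 rpm. MBC by Miles-Misra drop-plate viability count.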

S. uberis ATCC 19436 = test: MIC by broth microdilution, S. uberis; conditions: Streptococcus uberis
Procedure, shortened: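 This broth microdilution assay used S. uberis ATCC 19436 in Todd Hewitt Broth, with zinc sulphate heptahydrate added where required to a final 50 μM. Inhibitor concentration ranges came from two-fold serial dilutions in 96-well flat bottom plates at 200 μl. Approximately 5×10^5 cfu/mL cells were incubated for 24 h at 37° C. and 200 rpm. Wells were then read at OD600 on a Varioskan Flash reader.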

S. aureus ATCC 6538 = test: MIC by broth microdilution, S. aureus; conditions: Staphylococcus aureus
Procedure, shortened: as §1

[1] = ATCC 10536 / ATCC 10596, No Zinc, read-out: E. coli ATCC 10536 MIC
[2] = ATCC 10536 / ATCC 10596, Zinc (50 μM), read-out: E. coli ATCC 10536 MIC
[3] = ATCC19436, No Zinc, read-out: S. uberis ATCC 19436 MIC
[4] = ATCC19436, Zinc (50 μM), read-out: S. uberis ATCC 19436 MIC
[5] = ATCC6538, No Zinc, read-out: S. aureus ATCC 6538 MIC
[6] = ATCC6538, Zinc (50 μM), read-out: S. aureus ATCC 6538 MIC
[7] = ATCC 10536 / ATCC 10596, read-out: E. coli ATCC 10536 MIC, No Zinc
[8] = ATCC 10536 / ATCC 10596, read-out: E. coli ATCC 10536 MIC, Zinc (50 μM)
[9] = ATCC19436, read-out: S. uberis ATCC 19436 MIC, No Zinc
[10] = ATCC19436, read-out: S. uberis ATCC 19436 MIC, Zinc (50 μM)
[11] = ATCC6538, read-out: S. aureus ATCC 6538 MIC, No Zinc
[12] = ATCC6538, read-out: S. aureus ATCC 6538 MIC, Zinc (50 μM)

SMILES | MIC (E. coli ATCC 10596; [1]) [µg/mL] | MIC (E. coli ATCC 10596; [2]) [µg/mL] | MIC (S. uberis ATCC 19436; [3]) [µg/mL] | MIC (S. uberis ATCC 19436; [4]) [µg/mL] | MIC (S. aureus ATCC 6538; [5]) [µg/mL] | MIC (S. aureus ATCC 6538; [6]) [µg/mL] | MIC (E. coli ATCC 10596; [7]) [µg/mL] | MIC (E. coli ATCC 10596; [8]) [µg/mL] | MIC (S. uberis ATCC 19436; [9]) [µg/mL] | MIC (S. uberis ATCC 19436; [10]) [µg/mL] | MIC (S. aureus ATCC 6538; [11]) [µg/mL] | MIC (S. aureus ATCC 6538; [12]) [µg/mL]
CC(C)NCc1ccc2cccc(NS(=O)(=O)c3ccc(C(F)(F)F)cc3)c2n1 [ZDR027, N-(2-((Isopropylamino)methyl)quinolin-8-yl)-4-(trifluoromethyl)-benzenesulfonamide] | > 256 | > 256 | 64 (≈ 151 µM) | 0.125 (≈ 0.295 µM) | 16 (≈ 37.8 µM) | 16 (≈ 37.8 µM) | – | – | – | – | – | –
CC(C)CNCc1ccc2cccc(NS(=O)(=O)c3ccc(C(F)(F)F)cc3)c2n1 [ZDR403, N-(2-((Iso-Butylamino)methyl)quinolin-8-yl)-4-(trifluoromethyl)benzenesulfonamide] | 64 (≈ 146 µM) | 256 (≈ 585 µM) | 16 (≈ 36.6 µM) | 0.125 (≈ 0.286 µM) | 32 (≈ 73.1 µM) | 128 (≈ 293 µM) | – | – | – | – | – | –
Cc1noc(C)c1S(=O)(=O)Nc1cccc2ccc(CN(C)C)nc12 [ZDR082, N-(2-((Dimethylamino)methyl)quinolin-8-yl)-3,5-dimethylisoxazole-4-sulfonamide] | > 256 | > 256 | > 256 | 0.125 (≈ 0.347 µM) | > 256 | > 256 | – | – | – | – | – | –
CN(C)CCNC(=O)CNCc1ccc2cccc(NS(=O)(=O)c3ccc(C(F)(F)F)cc3)c2n1 [ZDR268, N-(2-(Dimethylamino)ethyl)-2-(((8-((4-(trifluoromethyl)phenyl)sulfonamido)quinolin-2-yl)methyl)amino)acetamide di-trifluoroacetate] | – | – | – | – | – | – | 64 (≈ 126 µM) | 64 (≈ 126 µM) | 32 (≈ 62.8 µM) | 16 (≈ 31.4 µM) | 64 (≈ 126 µM) | 128 (≈ 251 µM)
CC(C)S(=O)(=O)Nc1cccc2ccc(CN(C)C)nc12 [ZDR318, N-(2-((Dimethylamino)methyl)quinolin-8-yl)propane-2-sulfonamide] | > 256 | > 256 | 256 (≈ 833 µM) | 32 (≈ 104 µM) | > 256 | > 256 | – | – | – | – | – | –
O=S(=O)(Nc1cccc2ccc(CNCCO)nc12)c1ccc(C(F)(F)F)cc1 [ZDR031, N-(2-(((2-Hydroxyethyl)amino)methyl)quinolin-8-yl)-4-(trifluoromethyl)benzenesulfonamide] | ≥ 256 | > 256 | 16 (≈ 37.6 µM) | 0.5 (≈ 1.18 µM) | 32 (≈ 75.2 µM) | 32 (≈ 75.2 µM) | – | – | – | – | – | –
O=S(=O)(Nc1cccc2ccc(CNCc3ccccn3)nc12)c1ccc(C(F)(F)F)cc1 [ZDR035, N-(2-((((Pyridin-2-yl)methyl)amino)methyl)quinolin-8-yl)-4-(trifluoromethyl)benzenesulfonamide] | 32 (≈ 67.7 µM) | > 256 | 2 (≈ 4.23 µM) | 1 (≈ 2.12 µM) | 4 (≈ 8.47 µM) | 4 (≈ 8.47 µM) | – | – | – | – | – | –
CN(C)Cc1ccc2cccc(NS(=O)(=O)c3ccc(NC(=O)OC(C)(C)C)cc3)c2n1 [ZDR333, tert-Butyl (4-(N-(2-((dimethylamino)methyl)quinolin-8-yl)sulfamoyl)phenyl)carbamate] | > 256 | > 256 | 64 (≈ 140 µM) | 0.125 (≈ 0.274 µM) | 128 (≈ 280 µM) | 128 (≈ 280 µM) | – | – | – | – | – | –
COc1cccc(S(=O)(=O)Nc2cccc3ccc(CN(C)C)nc23)c1 [ZDR314, N-(2-((Dimethylamino)methyl)quinolin-8-yl)-3-methoxybenzenesulfonamide] | > 256 | > 256 | 128 (≈ 345 µM) | 0.25 (≈ 0.673 µM) | 256 (≈ 689 µM) | > 256 | – | – | – | – | – | –
CN(C)Cc1ccc2cccc(NS(=O)(=O)c3cc(F)c(F)cc3F)c2n1 [ZDR337, N-(2-((Dimethylamino)methyl)quinolin-8-yl)-2,4,5-trifluorobenzenesulfonamide] | > 256 | > 256 | 256 (≈ 647 µM) | 0.0625 (≈ 0.158 µM) | > 256 | > 256 | – | – | – | – | – | –
CNC(=O)CNCc1ccc2cccc(NS(=O)(=O)c3ccc(C(F)(F)F)cc3)c2n1 [ZDR270, N-Methyl-2-(((8-((4-(trifluoromethyl)phenyl)sulfonamido)quinolin-2-yl)methyl)amino)acetamide trifluoroacetate] | – | – | – | – | – | – | 128 | 256 | 16 | 4 | 32 | 32
C#CCNCc1ccc2cccc(NS(=O)(=O)c3ccc(C(F)(F)F)cc3)c2n1 [ZDR098, N-(2-((Prop-2-yn-1-ylamino)methyl)quinolin-8-yl)-4-(trifluoromethyl)benzenesulfonamide] | > 256 | > 256 | 64 (≈ 153 µM) | 0.125 (≈ 0.298 µM) | 64 (≈ 153 µM) | > 256 | – | – | – | – | – | –
